The text below walks through data of patent US11141394B2, “Carbon dioxide external preparation” (priority 2017, dated 2021).

Each structure is given as a SMILES string.

The test system of test [1] is pain of de Quervain syndrome. The experiment in a line: Pain relief test (de Quervain syndrome). The class given is in vivo, human. The settings on record: person one; oral, earlier treatment. As to the method: This test was conducted by a physical therapist. subject one was a person who has been suffering from de Quervain syndrome. Oral anti-inflammatory loxoprofen sodium had shown no effect on the pain of de Quervain syndrome. They had been suffering from sharp pain in the short rollical extensor muscle and the […] of the radial aspect of the hand joint. […] Therefore, pain relief effect of a carbon dioxide external preparation of the present invention was obvious.

For test [2], the system named is pain and knee stiffness of rheumatism. The experiment in a line: Pain and knee stiffness of rheumatism improvement test. The conditions noted are these: person two; oral, earlier treatment. The class given is in vivo, human. The source says:
Therefore, pain and knee stiffness of rheumatism improvement effect of a carbon dioxide external preparation of the present invention was obvious.

Take `CC(C(=O)O)c1ccc(CC2CCCC2=O)cc1` (centres unmarked) [loxoprofen sodium]: in test [1], the “effect on the pain of de Quervain syndrome” value is “no effect”. The “pain and knee stiffness of rheumatism” value in test [2] is given as “had not been improved”.
